Earlier results in patent publication US20180128811A1 (JNC Corporation, priority 2012, published 2018).

Settings: small doses (about less than 250 mg), first-order kinetics; cited from earlier work

## CC(=O)Oc1ccccc1C(=O)O [aspirin, acetylsalicylic acid]
  Elimination half-life: about 4 hours
